According to patent US5159081A, “Intermediates of peripherally selective N-carbonyl-3,4,4-trisubstituted piperidine opioid antagonists” (Eli Lilly and Company, priority 1991, dated 1992):
Read-outs that look alike come from different tables or passages of the source.

Tests used:
mu receptor = target: T1, mu receptor (Rattus norvegicus, UniProt P33535); assay: Naloxone [3H] opioid receptor binding assay (mu receptor); design: species or system rat (male Sprague Dawley); details: 20 min; for Ki: rat whole brain minus cerebellum, pH 7.4, 37° C., read-out: Ki
T1 construct: The brain tissue, rat whole brain minus cerebellum for mu was homogenized; from tissue; host or cells: brain minus cerebellum of male Sprague Dawley rats, homogenate fraction

opioid receptor = target: T2, opioid receptor (Mus musculus, UniProt P42866); assay: in vivo; design: species or system CF-1 male mice; details: sc; mouse writhing test; […]; s.c. 20 min before acetic acid; read-out: AD50 (the source's name)
T2 construct: Five CF-1 male mice (Charles River, Portage, MI); from tissue; host or cells: living CF-1 male mice (whole animal, endogenous receptor)

[1] = tested on: peripheral opioid receptors; assay: mouse diarrhea test: precipitated diarrhea in morphine-maintained mice (peripheral opioid activity); type: in vivo; details: AD50 mouse writhing / ED50 mouse diarrhea; higher = greater relative peripheral antagonism
[2] = target: peripheral opioid receptors (Mus musculus, UniProt P42866); assay: as above; type: in vivo; details: mouse diarrhea test, morphine-maintained mice, subcutaneous or oral, 30 min observation
[3] = pH 7.4, read-out: % displacement at 10 nM
[4] = pH 7.4, read-out: % displacement at 100 nM
[5] = pH 7.4, 10 nM test compound, [3H]naloxone 0.5 nM, mu receptor, read-out: % displacement at 10 nM
[6] = pH 7.4, 100 nM test compound, [3H]naloxone 0.5 nM, mu receptor, read-out: % displacement at 100 nM

T1 sequence (P33535 whole entry): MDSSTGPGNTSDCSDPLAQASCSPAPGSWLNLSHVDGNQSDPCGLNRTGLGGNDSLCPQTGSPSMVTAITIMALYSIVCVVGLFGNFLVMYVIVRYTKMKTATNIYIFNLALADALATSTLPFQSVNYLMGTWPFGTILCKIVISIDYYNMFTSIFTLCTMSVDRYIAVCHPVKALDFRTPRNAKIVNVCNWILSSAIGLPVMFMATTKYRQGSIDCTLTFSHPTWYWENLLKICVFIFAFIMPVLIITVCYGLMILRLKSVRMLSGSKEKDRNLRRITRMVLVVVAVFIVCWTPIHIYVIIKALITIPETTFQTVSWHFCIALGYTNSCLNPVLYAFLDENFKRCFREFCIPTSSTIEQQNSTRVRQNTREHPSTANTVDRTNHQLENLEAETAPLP
T2 sequence (P42866 whole entry): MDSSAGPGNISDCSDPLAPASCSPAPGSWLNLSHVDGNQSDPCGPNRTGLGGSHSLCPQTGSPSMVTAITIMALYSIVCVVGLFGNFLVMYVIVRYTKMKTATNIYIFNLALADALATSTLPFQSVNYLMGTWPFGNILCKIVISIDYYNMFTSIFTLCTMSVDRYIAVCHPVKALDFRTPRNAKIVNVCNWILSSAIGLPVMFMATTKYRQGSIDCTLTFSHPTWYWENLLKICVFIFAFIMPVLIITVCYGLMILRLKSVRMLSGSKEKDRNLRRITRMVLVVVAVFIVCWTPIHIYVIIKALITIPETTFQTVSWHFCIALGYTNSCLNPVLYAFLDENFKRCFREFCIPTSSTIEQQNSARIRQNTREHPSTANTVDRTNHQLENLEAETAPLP
Sequence of peripheral opioid receptors (Mus musculus, UniProt P42866) (P42866 whole entry): as above

C[C@@H]1CN(C[C@H](CC2CCCCC2)NC(=O)CCCC(=O)OCC(N)=O)CC[C@]1(C)c1cccc(O)c1 [Example 60]
inhibition at 0.01 µM (mu receptor; [3]): 76%
inhibition at 0.1 µM (mu receptor; [4]): 95%
Ki (mu receptor; [3H]naloxone 0.5 nM): 5.96 nM
ED50 (opioid receptor): > 10 mg/kg
Ratio (ratio of AD50 to ED50) [1]: > 285
ED50 [2]: 0.035 mg/kg

C[C@H]1CN(C[C@H](CC2CCCCC2)NC(=O)CCCC(=O)OCC(N)=O)CC[C@@]1(C)c1cccc(O)c1 [Example 61]
inhibition at 0.01 µM (mu receptor; [3]): 88%
inhibition at 0.1 µM (mu receptor; [4]): 97%
Ki (mu receptor; [3H]naloxone 0.5 nM): 2.86 nM
ED50 (opioid receptor): 22 mg/kg
Ratio (ratio of AD50 to ED50) [1]: 169
ED50 [2]: 0.13 mg/kg

CNC(=O)COC(=O)CCCC(=O)N[C@@H](CC1CCCCC1)CN1CC[C@](C)(c2cccc(O)c2)[C@H](C)C1 [Example 62]
inhibition at 0.01 µM (mu receptor; [3]): 70%
inhibition at 0.1 µM (mu receptor; [4]): 96%
ED50 (opioid receptor): > 40 mg/kg
Ratio (ratio of AD50 to ED50) [1]: > 1333
ED50 [2]: 0.03 mg/kg

CNC(=O)COC(=O)CCCC(=O)N[C@@H](CC1CCCCC1)CN1CC[C@@](C)(c2cccc(O)c2)[C@@H](C)C1 [Example 63]
inhibition at 0.01 µM (mu receptor; [3]): 87%
inhibition at 0.1 µM (mu receptor; [4]): 99%
Ki (mu receptor; [3H]naloxone 0.5 nM): 2.13 nM
ED50 (opioid receptor): 12 mg/kg
Ratio (ratio of AD50 to ED50) [1]: 4000
ED50 [2]: 0.003 mg/kg

CCNC(=O)COC(=O)CCCC(=O)N[C@@H](CC1CCCCC1)CN1CC[C@](C)(c2cccc(O)c2)[C@H](C)C1 [Example 65]
inhibition at 0.01 µM (mu receptor; [3]): 67%
inhibition at 0.1 µM (mu receptor; [4]): 93%
ED50 (opioid receptor): > 40 mg/kg
Ratio (ratio of AD50 to ED50) [1]: > 2000
ED50 [2]: 0.02 mg/kg

CCNC(=O)COC(=O)CCCC(=O)N[C@@H](CC1CCCCC1)CN1CC[C@@](C)(c2cccc(O)c2)[C@@H](C)C1 [Example 66]
inhibition at 0.01 µM (mu receptor; [3]): 81%
inhibition at 0.1 µM (mu receptor; [4]): 94%
Ki (mu receptor; [3H]naloxone 0.5 nM): 1.84 nM
ED50 (opioid receptor): 12.2 mg/kg
Ratio (ratio of AD50 to ED50) [1]: 2440
ED50 [2]: 0.005 mg/kg

COC1CCC(OC(=O)CCCC(=O)N[C@@H](CC2CCCCC2)CN2CC[C@@](C)(c3cccc(O)c3)[C@@H](C)C2)CC1 (some centres unmarked) [Example 68]
inhibition at 0.01 µM (mu receptor; [5]): 68%
inhibition at 0.1 µM (mu receptor; [6]): 95%
ED50 (opioid receptor): 18.8 mg/kg
Ratio (ratio of AD50 to ED50) [1]: 65
ED50 ([2]; 0.5 h, read-out: ED50): 0.29 mg/kg

COC1CCC(OC(=O)CCCC(=O)N[C@@H](CC2CCCCC2)CN2CC[C@](C)(c3cccc(O)c3)[C@H](C)C2)CC1 (some centres unmarked) [Example 69]
inhibition at 0.01 µM (mu receptor; [5]): 37%
inhibition at 0.1 µM (mu receptor; [6]): 83%
ED50 (opioid receptor): > 40 mg/kg
Ratio (ratio of AD50 to ED50) [1]: > 1333
ED50 ([2]; 0.5 h, read-out: ED50): 0.03 mg/kg

Cc1oc(=O)oc1COC(=O)CCCC(=O)N[C@@H](CC1CCCCC1)CN1CC[C@@](C)(c2cccc(O)c2)[C@@H](C)C1 [Example 70]
inhibition at 0.01 µM (mu receptor; [3]): 89%
inhibition at 0.1 µM (mu receptor; [4]): 99%
Ki (mu receptor; [3H]naloxone 0.5 nM): 1.78 nM
ED50 (opioid receptor): 18.2 mg/kg
Ratio (ratio of AD50 to ED50) [1]: 1070
ED50 [2]: 0.017 mg/kg
